According to PMC4759522, “A fragment merging approach towards the development of small molecule inhibitors of Mycobacterium tuberculosis EthR for use as ethionamide boosters” (Organic & Biomolecular Chemistry, 2016):
pIC50, pKd: −log10 of the molar value. Where two headings read alike, the source gives them in different places.

Columns and labels:
EthR [1] = biological target: T1, EthR (Mycobacterium tuberculosis, UniProt P9WMC1); test: Fluorescence-based thermal shift (DSF) against EthR; assay type: binding; conditions: fluorescent-based thermal shift against EthR, 100 μM compound
EthR [2] = biological target: T1, EthR; test: Isothermal titration calorimetry (ITC) binding to EthR; conditions: for K D (ITC): n.d. = no heats of binding detected
From the text: Figure S5 Crystal structure of 28 bound to EthR (the two different binding modes for this ligand are super-imposed). Although the conformations of the side chains of residues Phe184 and Trp138 preclude the formation of sub-pockets III and IV in the sense of Figure S3, compound 28 is still capable of binding to the protein by altering the shape of the EthR hydrophobic cavity and moulding it around its own scaffold. (PDB code 5F0H) […]
Differential scanning fluorimetry (DSF)
DSF measurements were carried out using a Bio-Rad CFX Connect machine with a 96-well reaction module. Samples (50 μl each) containing EthR (20 μM), NaCl (150 mM), Tris.HCl (20 mM, pH = 8.5), SYPRO orange (2.5x) and test compound (100 µM) in water were prepared in 96-well plates. The 96-well plates were heated linearly from 25 °C to 95 °C using a temperature increment of 0.5 °C every 30 seconds. Melting curves represent plots of the fluorescence emission intensity at λmax 490/575 nm of each sample against temperature.
Melting temperatures (Tm) were determined as the temperatures at which the minima on the negative first derivatives of the melting curves occurred.
Isothermal titration calorimetry (ITC)
An aqueous solution of the fragment to be tested (1 mM) was prepared containing NaCl (300 mM), Tris.HCl (20 mM, pH = 8.0), d6-DMSO (10% v/v) and glycerol (to match the 10% v/v glycerol content in the EthR stock solution). A separate aqueous solution of EthR (50 μM) […]
(1 picture or pasted object on this page, not shown here) […]
(§1) containing NaCl (300 mM), Tris.HCl (20 mM, pH = 8.0) and DMSO-d6 (10% v/v) was prepared and placed in the sample cell of a MicroCal iTC200 microcalorimeter (GE Healthcare). The fragment solution was then titrated to the EthR solution over 39 injections (first injection of 0.4 μl and subsequent injections of 1.0 μl). Data was fitted to a one site binding model using Origin software.
(§2) Figure S6 ITC trace for 4-(4-(3-Oxo-3-(pyrrolidin-1-yl)propyl)piperidin-1-yl)benzonitrile 15 Surface plasmon resonance (SPR)
(§3) The SPR assay was carried out using a BIAcore T100 instrument as described previously.2 The assay was designed to measure the interaction of EthR with the ethA promoter DNA sequence (106 bp – experimental DNA), immobilised via biotin-streptavidin linkage onto an […]

EthR [3] = biological target: T1, EthR; test: SPR functional assay: disruption of the interaction between EthR and its DNA operator; assay type: biochemical; conditions: for LE: calculated using IC50 values determined by SPR; for fold improvement by SPR compared to compound 5: compared to merged compound 5
Description: as §1, §2, §3
(1 picture or pasted object on this page, not shown here)
SA Series S Sensor Chip (BIAcore). DNA from pUC19 (113 bp) was used as the control against non-specific binding. The experimental (106 bp) and control (113 bp) DNA fragments were produced as described previously.15,16 Biotinylated control and experimental DNA were immobilized to the chip surface to achieve stable fixation levels of 247 and 252 resonance units (RU) respectively.
For screening, EthR/ fragment solution (1-2 μM EthR and required concentration of fragment made up in running buffer (2 mM MgCl2, 10 mM Tris-Cl pH 7.5, 0.1 mM EDTA, 200 mM NaCl, 2% (v/v) DMSO) was flowed over the chip at 20 μL/min for 180 s. The dissociation time was 180 s. To determine binding levels, the response of the control channel at steady state was subtracted from that of the experiment channel. The chip was regenerated between samples using 0.03% w/v SDS in running buffer (passed at a flow rate of 20 μL/ min for 60 […]
For IC50 calculations, the SPR response of EthR binding to the immobilized DNA was measured at various concentrations of compound. The resulting RUs were used to fit the data using nonlinear regression with variable slope dose-response inhibition constrains on GrapfPad PRISM 5.00. IC50 values were calculated as the compound concentrations necessary to inhibit 50% of the maximal interaction between EthR and its DNA operator […]
Figure S7 IC50 curve (SPR) for N-((1-(4-Cyanophenyl)piperidin-4-yl)methyl)pyrrolidine-1-

T1 sequence (P9WMC1 whole entry, looked up): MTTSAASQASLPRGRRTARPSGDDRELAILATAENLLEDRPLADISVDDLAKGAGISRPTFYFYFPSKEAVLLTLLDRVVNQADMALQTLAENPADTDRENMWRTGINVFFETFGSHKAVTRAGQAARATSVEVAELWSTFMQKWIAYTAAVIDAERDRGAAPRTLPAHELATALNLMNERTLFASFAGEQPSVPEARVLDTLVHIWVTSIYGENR

For `O=C(CCC1CCCC1)N1CCCC1` [Compound 1], the ΔT m (EthR [1]) was “+3.5 °C”, the pKd (EthR [2]) was 4.92 and the pIC50 (EthR [3]) was 3.55. It also gave an LE (EthR [3]) of 0.36.
With `CNCc1ccc(N2CCCCC2)cc1` [Compound 2] the ΔT m (EthR [1]) was “+3.8 °C” and the pIC50 (EthR [3]; disruption of EthR binding to its DNA operator, SPR, read-out: IC50 (SPR)) was less than 4.00.
In the case of `CNCc1ccc(N2CCCN(C(=O)CCC3CCCC3)C2)cc1` [Compound 3, 3-cyclopentyl-1-(3-(4-((methylamino)methyl)phenyl)tetrahydropyrimidin-1(2H)-yl)propan-1-one], the pIC50 (EthR [3]) was less than 4.00.
In the case of `O=C(CCC1CCCC1)Nc1cccc(N2CCCCC2)c1` [Compound 4], the ΔT m (EthR [1]) was “+4.5 °C” and the pIC50 (EthR [3]) was less than 4.00.
`CNCc1ccc(N2CCC(CCC(=O)N3CCCC3)CC2)cc1` [Compound 5] was tested, and the ΔT m (EthR [1]) was “+4.3 °C”, the pKd (EthR [2]) was 5.30 and the pIC50 (EthR [3]) was 4.46. The “fold improvement in disruption of EthR-DNA interaction (SPR IC50) compared to starting fragment 1” value (EthR [3]; compared to fragment 1) was “eight-fold”.
For `CN(Cc1ccc(N2CCC(CCC(=O)N3CCCC3)CC2)cc1)C(=O)OC(C)(C)C` [Compound 14], the ΔT m (EthR [1]) was “+6.3 °C”, the pKd (EthR [2]) was 5.52 and the pIC50 (EthR [3]) was 5.15. For the same molecule, the “fold improvement by SPR compared to compound 5” value (EthR [3]) was “five-fold”.
For `N#Cc1ccc(N2CCC(CCC(=O)N3CCCC3)CC2)cc1` [Compound 15, 4-(4-(3-Oxo-3-(pyrrolidin-1-yl)propyl)piperidin-1-yl)benzonitrile], the ΔT m (EthR [1]) was “+7.5 °C”, the pKd (EthR [2]) was 6.00 and the “fold decrease in K D by ITC compared to compound 5” value (EthR [2]; compared to compound 5) was “five-fold”. For the same molecule, the pIC50 (EthR [3]) was 5.52, the LE (EthR [3]) was 0.34 and the “fold improvement by SPR compared to compound 5” value (EthR [3]) was 10 fold.
With `CCOC(=O)c1ccc(N2CCC(CCC(=O)N3CCCC3)CC2)cc1` [Compound 16] the ΔT m (EthR [1]) was “+9.3 °C”, the “K D (ITC)” value (EthR [2]) was “binding could not be measured by ITC” and the pIC50 (EthR [3]) was 5.52.
With `N#Cc1ccc(N2CCC(CNC(=O)N3CCCC3)CC2)cc1` [Compound 17, N-((1-(4-Cyanophenyl)piperidin-4-yl)methyl)pyrrolidine-1-carboxamide] the ΔT m (EthR [1]) was “+7.2 °C” and the pIC50 (EthR [3]) was 5.40.
With `CCOC(=O)c1ccc(N2CCC(CNC(=O)N3CCCC3)CC2)cc1` [Compound 18] the ΔT m (EthR [1]) was “+8.8 °C” and the pIC50 (EthR [3]) was 5.70.
In the case of `N#Cc1ccc(N2CCC(CNC(=O)C3CCCC3)CC2)cc1` [Compound 19], the ΔT m (EthR [1]) was “+5.9 °C” and the pIC50 (EthR [3]) was 4.60.
`CCOC(=O)c1ccc(N2CCC(CNC(=O)C3CCCC3)CC2)cc1` [Compound 20] was tested, and the ΔT m (EthR [1]) was “+5.5 °C” and the pIC50 (EthR [3]) was less than 4.00.
For `O=C(NCC1CCN(c2ccccn2)CC1)N1CCCC1` [Compound 21], the ΔT m (EthR [1]) was “+3.8 °C”, the pKd (EthR [2]) was 4.62 and the pIC50 (EthR [3]) was 4.66. For the same molecule, the LE (EthR [3]) was 0.31.
In the case of `O=C(NCC1CCN(c2ncccn2)CC1)N1CCCC1` [Compound 22], the ΔT m (EthR [1]) was “+3.7 °C”, the pKd (EthR [2]) was 4.92 and the pIC50 (EthR [3]) was 4.70.
With `N#Cc1ccc(N2CCC(CCC(=O)Nc3cccc(N4CCCCC4)c3)CC2)cc1` [Compound 23, 3-(1-(4-cyanophenyl)piperidin-4-yl)-N-(3-(piperidin-1-yl)phenyl)propanamide] the “K D (ITC)” value (EthR [2]) was “could not be observed by ITC” and the pIC50 (EthR [3]) was less than 4.00.
For `N#Cc1ccc(N2CCC(CCC(=O)NCc3ccc(N4CCCCC4)cc3)CC2)cc1` [Compound 28], the “K D (ITC)” value (EthR [2]) was “could not be observed by ITC” and the pIC50 (EthR [3]) was 4.48.
For `N#Cc1ccc(N2CCC(CCC(=O)NCc3cccc(N4CCCCC4)c3)CC2)cc1` [Compound 29], the ΔT m (EthR [1]) was “+9.2 °C”, the “K D (ITC)” value (EthR [2]) was “could not be observed by ITC” and the pIC50 (EthR [3]) was 4.28.
